Results as given in US20210114029A1, “DEVICES, SYSTEMS, AND METHODS FOR HIGH THROUGHPUT SINGLE CELL ANALYSIS” (Duke University, priority 2017, published 2021).

Key:
MOLM 13 cells = assay: Growth of MOLM 13 cells in microfluidic chambers in the presence of Quizartinib; type: cell-based; conditions: drug vs control medium, images FIG. 22A/22B
From the text: (§1) Cells were introduced to the array and transferred to the interior chambers with a gentle trap and transfer technique that is similar to previously reported methods (Dura, et al. (2014), “Deformability-based microfluidic cell pairing and fusion”, Lab. Chip 14:2783). Specifically, we first captured cells at the entrance of the traps, and next transferred the cells into the chambers with a brief pressure burst, causing the cells to squeeze through the narrow constrictions and move into the interior chambers. The widths of the constrictions were adjusted in the range of 3-6 microns, depending on the cell type the device was designed to capture. […] Flow control was achieved by adjusting negative pressure at the outlet, which allowed cells to be pipetted directly in the inlet reservoir with minimal losses from dead volume. Additionally, this approach allowed us to wash the cells from the inlet reservoir once the array was fully populated. […]
(§2) Cells were imaged twice per day and immediately returned to the incubator after each imaging cycle, requiring around 5-10 minutes for each chip. After 7 days, the imaging dataset was analyzed by custom computer vision software written in Python using a pre-trained Mask_RCNN image segmentation model. […]

K562 cells = assay: Growth of K562 single cell colonies in microfluidic trap array in the presence of Imatinib; type: cell-based; conditions: K562 cells grown with 0.1 μM, 0.3 μM, 0.5 μM Imatinib or control; FIG. 20
From the text: as §1, §2

For `CC(C)(C)c1cc(NC(=O)Nc2ccc(-c3cn4c(n3)sc3cc(OCCN5CCOCC5)ccc34)cc2)no1` [Quizartinib], the “outgrowth of clones in the presence of the drug” value (MOLM 13 cells) was “A single clone is observed to grow out in the presence of the drug”.
With `Cc1ccc(NC(=O)c2ccc(CN3CCN(C)CC3)cc2)cc1Nc1nccc(-c2cccnc2)n1` [Imatinib] the “growth rate distribution of colonies” value (K562 cells) was “decreased growth rate with increasing drug concentration”.
